Source: US4314028A, “Fermentation process for producing tallysomycin compounds” (priority 1980, dated 1982)

How the values were obtained:
[1] = system: Aspergillus fumigatus IAM 2593; assay: MIC, two-fold agar dilution method; assay type: cell-based; conditions: Sabouraud agar
Experimental: (§1) The minimum inhibitory concentrations (MIC) of the semibiosynthetic tallysomycin derivatives of the present invention were determined against fungi and gram-positive, gram-negative and acid-fast bacteria by the two-fold agar dilution method. Nutrient agar was used for bacteria and Sabouraud agar for fungi. The results are shown in the table below comparatively with tallysomycin A and B.

[2] = system: Bacillus subtilis PCI 219; assay: MIC, two-fold agar dilution method; assay type: cell-based; conditions: nutrient agar
Experimental: as §1

[3] = system: Candida albicans IAM 4888; assay: MIC, two-fold agar dilution method; assay type: cell-based; conditions: Sabouraud agar
Experimental: as §1

[4] = system: Escherichia coli NIHJ; assay: MIC, two-fold agar dilution method; assay type: cell-based; conditions: nutrient agar
Experimental: as §1

[5] = system: Mycobacterium 607; assay: MIC, two-fold agar dilution method; assay type: cell-based; conditions: nutrient agar
Experimental: as §1

[6] = system: Proteus mirabilis A9554; assay: MIC, two-fold agar dilution method; assay type: cell-based; conditions: nutrient agar
Experimental: as §1

[7] = system: Sarcina lutea PCI1001; assay: MIC, two-fold agar dilution method; assay type: cell-based; conditions: nutrient agar
Experimental: as §1

[8] = system: Staphylococcus aureus Smith; assay: MIC, two-fold agar dilution method; assay type: cell-based; conditions: nutrient agar
Experimental: as §1

[9] = system: Mycobacterium smegmatis strain M6-3; assay: Relative antibacterial potency, paper-disc agar diffusion method; assay type: cell-based; conditions: relative to tallysomycin A standard=1000 mcg/mg
Experimental: The relative antibacterial potencies (tallysomycin A standard=1000 mcg/mg) of the tallysomycin derivatives were determined by the paper-disc agar diffusion method using Mycobacterium smegmatis strain M6-3 as the assay organism.

[10] = system: lysogenic bacterium E. coli W1709 (λ); assay: Prophage induction of lysogenic bacterium (ILB activity); assay type: cell-based; conditions: t/c ratio of plaque counts greater than 3.0
Experimental: The activity of prophage induction of lysogenic bacterium E. coli W1709 (λ) was determined according to the method disclosed by Lein et al. in Nature 196: 783-784 (1962). The plaque count was made on the agar plate containing test compound (t) and control plate (c). A t/c ratio of the plaque counts of greater than 3.0 was defined to be a significant level and lysogenic induction activity (ILB activity) was expressed by the minimum inducible concentration of the test compound.

[11] = system: Lymphocytic leukemia P388; assay: animal or person; assay type: in vivo, BDF1 mice; conditions: copper-chelated form unless otherwise stated; for Antitumor activity P388 (ED125): ip, once daily 9 days, dose giving T/C survival of 125%; for Antitumor therapeutic index P388: single dose LD50/ED125
From the text: (§2) The antitumor activity of the tallysomycin derivatives was examined in four experimental tumor systems in mice. Lymphocytic leukemia P388 and Lewis lung carcinoma were implanted intraperitoneally into BDF1 mice of either sex at an inoculum size of 3×10^5 and 5×10^5 cells per mouse, respectively. Sarcoma 180 ascites tumor was inoculated intraperitoneally into male dd-strain mice with […] per mouse. Melanotic melanoma B16 was implanted subcutaneously into BDF1 mice with 5×10^5 cells per mouse. Twenty-four hours after the implantation of tumor cells, graded doses of test compounds were administered to mice intraperitoneally in an injection volume of 0.2 ml. per 10 grams of body weight. Test compounds were given once daily for 9 days (qd 1→9 schedule) except for the mice inoculated with Lewis lung carcinoma which were treated for 11 days (qd 1→11). Death or survival of the treated and non-treated (control) animals was recorded daily during the observation period of 45 days after the implantation of tumor cells, and the median survival time was calculated for each of the test (T) and control (C) groups. […] The actual dose giving a T/C of 125% was estimated by linear regression analysis and defined as the effective dose 125 or ED125. The effective dose 150 (ED150) was employed for the evaluation of antitumor effect against Sarcoma 180. In the B16 melanoma experiment the tumor size was measured on day 16 after tumor inoculation, and the dose giving 50% inhibition of tumor growth (ID50) was calculated from regression lines.
(§3) The antitumor therapeutic index was calculated for each derivative from the ratio of toxicity and antitumor activity.

[12] = system: Sarcoma 180; assay: animal or person; assay type: in vivo, dd-strain mice; conditions: copper-chelated form unless otherwise stated; for Antitumor activity S180 (ED150): ip, once daily 9 days, effective dose 150, survival; for Antitumor therapeutic index S180: single dose LD50/ED150
From the text: as §2, §3

[13] = system: Melanotic melanoma B16; assay: Antitumor activity in mice, melanotic melanoma B16; assay type: in vivo, BDF1 mice; conditions: copper-chelated form unless otherwise stated; for Antitumor activity B16 (ID50): ip, once daily 9 days, 50% inhibition of tumor growth, day 16, 23040 min; for Antitumor therapeutic index B16: single dose LD50/ID50
From the text: as §2, §3

[14] = system: Lewis lung carcinoma; assay: Antitumor activity in mice, Lewis lung carcinoma; assay type: in vivo, BDF1 mice; conditions: copper-chelated form unless otherwise stated; for Antitumor activity Lewis lung (ED125): ip, once daily 11 days, dose giving T/C survival of 125%; for Antitumor therapeutic index Lewis Lung: single dose LD50/ED125
From the text: as §2, §3

[15] = Acute toxicity, single dose LD50; assay type: in vivo, dd mice; conditions: ip, 30 days observation, copper-chelated form unless otherwise stated
Experimental: Graded doses of test compounds were administered intraperitoneally to groups of dd mice. The injection was given one time only or once daily for 9 consecutive days. Death or survival of the animals was recorded for 30 days after the last dose of test compound to calculate the single or multiple median lethal dose (LD50).

Row | Compound | minimum inhibitory concentration (MIC) [1] | minimum inhibitory concentration (MIC) [2] | minimum inhibitory concentration (MIC) [3] | minimum inhibitory concentration (MIC) [4] | minimum inhibitory concentration (MIC) [5] | minimum inhibitory concentration (MIC) [6] | minimum inhibitory concentration (MIC) [7] | minimum inhibitory concentration (MIC) [8] | Antibacterial potency [9] | ILB activity (minimum inducible concentration) [10] [µg/mL] | Antitumor activity P388 (ED125) [11] [mg/kg/day] | Antitumor therapeutic index P388 [11] | Antitumor activity S180 (ED150) [12] [mg/kg/day] | Antitumor therapeutic index S180 [12] | Antitumor activity B16 (ID50) [13] [mg/kg/day] | Antitumor therapeutic index B16 [13] | Antitumor activity Lewis lung (ED125) [14] [mg/kg/day] | Antitumor therapeutic index Lewis Lung [14] | LD50 single dose [15] [mg/kg/day]
1 | Cc1c(N)nc(C(CC(N)=O)NCC(N)C(N)=O)nc1C(=O)NC(C(=O)NC(C)C(O)CC(=O)NC(C(=O)NC(OC1OC(C)C(N)C(O)C1O)C(O)c1nc(-c2nc(C(=O)NCCNCCO)cs2)cs1)C(C)O)C(OC1OC(CO)C(O)C(O)C1OC1OC(CO)C(O)C(OC(N)=O)C1O)c1c[nH]cn1 (centres unmarked) [Tallysomycin S9b] | 1.6 | 0.013 | 25 | 0.1 | 0.1 | 0.8 | 0.8 | 0.4 | 380 μ/mg | 0.16 | > 3.0 | < 11 | 0.42 | 76 | 0.29 | 110 | 0.41 | 78 | 32
2 | Cc1c(N)nc(C(CC(N)=O)NCC(N)C(N)=O)nc1C(=O)NC(C(=O)NC(C)C(O)CC(=O)NC(C(=O)NC(OC1OC(C)C(N)C(O)C1O)C(O)c1nc(-c2nc(C(=O)NCCCN)cs2)cs1)C(C)O)C(OC1OC(CO)C(O)C(O)C1OC1OC(CO)C(O)C(OC(N)=O)C1O)c1c[nH]cn1 (centres unmarked) [Tallysomycin S1b] | 1.6 | < 0.05 | 12.5 | 0.4 | < 0.05 | 1.6 | 1.6 | 1.6 | 1,000 μ/mg | 0.31 | 2.0 | 10 | 0.11 | 173 | 0.15 | 127 | 0.12 | 158 | 19
3 | Cc1c(N)nc(C(CC(N)=O)NCC(N)C(N)=O)nc1C(=O)NC(C(=O)NC(C)C(O)CC(=O)NC(C(=O)NC(OC1OC(C)C(N)C(O)C1O)C(O)c1nc(-c2nc(C(=O)NCCCN(CCO)CCO)cs2)cs1)C(C)O)C(OC1OC(CO)C(O)C(O)C1OC1OC(CO)C(O)C(OC(N)=O)C1O)c1c[nH]cn1 (centres unmarked) [Tallysomycin S8b] | 1.6 | 0.013 | > 50 | 0.2 | 0.1 | 0.8 | 0.8 | 0.4 | 370 μ/mg | 0.02 | 1.5 | 20 | 0.25 | 120 | 0.26 | 115 | 0.12 | 250 | 30
4 | Cc1c(N)nc(C(CC(N)=O)NCC(N)C(N)=O)nc1C(=O)NC(C(=O)NC(C)C(O)CC(=O)NC(C(=O)NC(OC1OC(C)C(N)C(O)C1O)C(O)c1nc(-c2nc(C(=O)NCCCC(N)CC(=O)NCCCNCCO)cs2)cs1)C(C)O)C(OC1OC(CO)C(O)C(O)C1OC1OC(CO)C(O)C(OC(N)=O)C1O)c1c[nH]cn1 (centres unmarked) [Tallysomycin S6a] | 0.2 | 0.03 | 6.3 | 0.4 | 0.4 | 1.6 | 1.6 | 0.8 | 460 μ/mg | 0.02 | 0.70 | 21 | 0.09 | 167 | 0.12 | 125 | 0.47 | 32 | 15
5 | Cc1c(N)nc(C(CC(N)=O)NCC(N)C(N)=O)nc1C(=O)NC(C(=O)NC(C)C(O)CC(=O)NC(C(=O)NC(OC1OC(C)C(N)C(O)C1O)C(O)c1nc(-c2nc(C(=O)NCCCNCCO)cs2)cs1)C(C)O)C(OC1OC(CO)C(O)C(O)C1OC1OC(CO)C(O)C(OC(N)=O)C1O)c1c[nH]cn1 (centres unmarked) [Tallysomycin S6b] | 0.8 | 0.02 | 25 | 0.4 | 0.2 | 3.1 | 12.5 | 6.3 | 340 μ/mg | 0.08 | 2.2 | 14 | 0.08 | 375 | 0.22 | 136 | 0.17 | 176 | 30
